target: PRC2 complex (EZH2 Y641F/EED/SUZ12/RbAp48/AEBP2) (Homo sapiens (Human), UniProt Q15910, Y641F); assay: Activity of a compound to PRC2 complex (EZH2 Y641F), HTRF; conditions: not given
Sequence (Q15910 whole entry Y641F): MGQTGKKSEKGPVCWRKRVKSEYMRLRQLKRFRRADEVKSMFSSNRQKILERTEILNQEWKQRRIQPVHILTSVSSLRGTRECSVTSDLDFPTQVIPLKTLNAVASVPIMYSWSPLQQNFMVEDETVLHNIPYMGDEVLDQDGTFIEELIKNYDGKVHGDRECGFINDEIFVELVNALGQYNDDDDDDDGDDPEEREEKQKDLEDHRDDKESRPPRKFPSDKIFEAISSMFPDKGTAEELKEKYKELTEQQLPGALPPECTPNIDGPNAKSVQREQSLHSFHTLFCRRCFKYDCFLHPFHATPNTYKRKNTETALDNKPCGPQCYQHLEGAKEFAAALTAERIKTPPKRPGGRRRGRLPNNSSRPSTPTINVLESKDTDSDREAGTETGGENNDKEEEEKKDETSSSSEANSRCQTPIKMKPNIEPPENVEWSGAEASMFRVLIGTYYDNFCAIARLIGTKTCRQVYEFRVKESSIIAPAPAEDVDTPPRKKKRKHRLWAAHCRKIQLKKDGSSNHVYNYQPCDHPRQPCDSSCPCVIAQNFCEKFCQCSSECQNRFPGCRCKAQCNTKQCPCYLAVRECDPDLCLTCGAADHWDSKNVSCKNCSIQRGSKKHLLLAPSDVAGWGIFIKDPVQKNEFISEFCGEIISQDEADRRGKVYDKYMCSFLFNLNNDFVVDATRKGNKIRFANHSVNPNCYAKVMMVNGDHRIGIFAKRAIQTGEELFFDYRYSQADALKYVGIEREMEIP
Sequence (O75530 whole entry partner): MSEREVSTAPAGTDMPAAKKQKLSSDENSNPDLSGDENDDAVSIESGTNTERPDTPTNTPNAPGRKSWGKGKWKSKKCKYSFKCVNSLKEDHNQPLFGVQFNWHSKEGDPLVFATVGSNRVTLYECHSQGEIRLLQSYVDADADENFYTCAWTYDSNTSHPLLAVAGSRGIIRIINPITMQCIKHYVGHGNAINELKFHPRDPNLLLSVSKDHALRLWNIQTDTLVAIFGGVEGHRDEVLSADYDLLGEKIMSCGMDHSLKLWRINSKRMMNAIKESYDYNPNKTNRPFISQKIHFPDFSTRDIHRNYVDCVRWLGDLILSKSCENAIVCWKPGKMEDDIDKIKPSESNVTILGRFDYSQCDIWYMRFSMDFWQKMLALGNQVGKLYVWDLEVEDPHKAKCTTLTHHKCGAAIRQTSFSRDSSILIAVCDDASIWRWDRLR
Sequence (Q15022 whole entry partner): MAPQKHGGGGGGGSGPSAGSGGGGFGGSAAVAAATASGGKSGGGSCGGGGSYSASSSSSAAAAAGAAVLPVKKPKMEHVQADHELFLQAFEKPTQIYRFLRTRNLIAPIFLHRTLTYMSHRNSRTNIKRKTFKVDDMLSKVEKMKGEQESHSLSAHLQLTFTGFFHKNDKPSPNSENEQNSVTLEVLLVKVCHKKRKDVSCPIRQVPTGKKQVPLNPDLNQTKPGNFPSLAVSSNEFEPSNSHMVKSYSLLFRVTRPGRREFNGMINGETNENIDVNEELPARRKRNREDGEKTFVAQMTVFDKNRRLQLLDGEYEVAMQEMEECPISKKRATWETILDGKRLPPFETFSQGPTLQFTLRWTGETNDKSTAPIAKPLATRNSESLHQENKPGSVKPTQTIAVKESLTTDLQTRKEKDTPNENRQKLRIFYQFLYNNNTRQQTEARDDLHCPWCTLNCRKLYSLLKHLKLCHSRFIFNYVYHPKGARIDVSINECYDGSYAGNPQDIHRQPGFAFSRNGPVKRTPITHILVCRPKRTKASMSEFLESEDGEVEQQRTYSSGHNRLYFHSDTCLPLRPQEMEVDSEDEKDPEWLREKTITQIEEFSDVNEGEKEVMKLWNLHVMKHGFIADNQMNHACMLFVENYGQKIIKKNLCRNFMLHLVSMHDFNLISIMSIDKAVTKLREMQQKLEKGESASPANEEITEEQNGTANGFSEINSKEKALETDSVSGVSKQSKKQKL
Sequence (Q09028 whole entry partner): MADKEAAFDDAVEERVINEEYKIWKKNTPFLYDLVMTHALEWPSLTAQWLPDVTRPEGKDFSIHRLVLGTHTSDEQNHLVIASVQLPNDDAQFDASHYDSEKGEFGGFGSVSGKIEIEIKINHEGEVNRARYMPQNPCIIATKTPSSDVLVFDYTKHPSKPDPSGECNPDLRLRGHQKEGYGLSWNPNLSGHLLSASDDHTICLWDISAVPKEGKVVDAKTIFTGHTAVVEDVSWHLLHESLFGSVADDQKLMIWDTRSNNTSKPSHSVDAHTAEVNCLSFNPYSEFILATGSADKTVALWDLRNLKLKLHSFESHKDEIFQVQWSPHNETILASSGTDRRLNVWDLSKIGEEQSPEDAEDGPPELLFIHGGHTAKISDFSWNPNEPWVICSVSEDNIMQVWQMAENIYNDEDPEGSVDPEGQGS
Sequence (Q6ZN18 whole entry partner): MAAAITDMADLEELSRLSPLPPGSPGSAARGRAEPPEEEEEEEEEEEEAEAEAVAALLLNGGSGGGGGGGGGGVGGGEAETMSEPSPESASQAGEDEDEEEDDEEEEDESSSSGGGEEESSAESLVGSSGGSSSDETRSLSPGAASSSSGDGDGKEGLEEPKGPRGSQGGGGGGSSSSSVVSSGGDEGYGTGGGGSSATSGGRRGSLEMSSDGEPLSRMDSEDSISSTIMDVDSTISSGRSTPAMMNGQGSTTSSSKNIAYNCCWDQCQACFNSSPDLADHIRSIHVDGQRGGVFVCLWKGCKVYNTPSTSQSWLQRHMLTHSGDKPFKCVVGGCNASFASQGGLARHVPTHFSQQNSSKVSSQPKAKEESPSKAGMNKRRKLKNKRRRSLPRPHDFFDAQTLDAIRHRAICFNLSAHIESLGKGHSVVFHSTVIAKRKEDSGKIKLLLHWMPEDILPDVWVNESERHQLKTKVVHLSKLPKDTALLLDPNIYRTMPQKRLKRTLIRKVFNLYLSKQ

Q: For COc1cc(C)[nH]c(=O)c1CNC(=O)c1cc2c(-c3ccc(F)cc3)ccn2c(C(C)N2CCN(CC(F)(F)F)CC2)c1C (centres unmarked) [Compound 162, 1-(4-fluorophenyl)-N-((4-methoxy-6-methyl-2-oxo-1,2-dihydropyridin-3-yl)methyl)-6-methyl-5-(1-(4-(2,2,2-trifluoroethyl)piperazin-1-yl)ethyl)indolizine-7-carboxamide], which IC50 is on record?
A: < 100 nM

Q: For COc1cc(C)[nH]c(=O)c1CNC(=O)c1cc2c(-c3ccnc(N(C)C)c3)ccn2c(C(C)N2CCN(CC(F)(F)F)CC2)c1C (centres unmarked) [Compound 170, 1-(2-(dimethylamino)pyridin-4-yl)-N-((4-methoxy-6-methyl-2-oxo-1,2-dihydropyridin-3-yl)methyl)-6-methyl-5-(1-(4-(2,2,2-trifluoroethyl)piperazin-1-yl)ethyl)indolizine-7-carboxamide], which IC50 is on record?
A: < 100 nM

Q: Which IC50 does the source give for CNc1cc(-c2ccn3c(C(C)N4CCN(CC(F)(F)F)CC4)c(C)c(C(=O)NCc4c(OC)cc(C)[nH]c4=O)cc23)ccn1 (centres unmarked) [Compound 180, N-((4-methoxy-6-methyl-2-oxo-1,2-dihydropyridin-3-yl)methyl)-6-methyl-1-(2-(methylamino)pyridin-4-yl)-5-(1-(4-(2,2,2-trifluoroethyl)piperazin-1-yl)ethyl)indolizine-7-carboxamide] here?
A: < 100 nM

same assay, conditions: read-out: IC50 (EZH2_Y641F); EZH2 Y641F PRC2 complex, HTRF; class symbols

Q: How did the IC50 turn out when CNc1cc(-c2ccn3c([C@H](C)N4CCN(CC(F)(F)F)CC4)c(C)c(C(=O)NCc4c(OC)cc(C)[nH]c4=O)cc23)ccn1 (single isomer, unassigned) [Compound 182, (S)—N-((4-methoxy-6-methyl-2-oxo-1,2-dihydropyridin-3-yl)methyl)-6-methyl-1-(2-(methylamino)pyridin-4-yl)-5-(1-(4-(2,2,2-trifluoroethyl)piperazin-1-yl)ethyl)indolizine-7-formamide or (R)—N-((4-methoxy-6-methyl-2-oxo-1,2-dihydropyridin-3-yl)methyl)-6-methyl-1-(2-(methylamino)pyridin-4-yl)-5-(1-(4-(2,2,2-trifluoroethyl)piperazin-1-yl)ethyl)indolizine-7-formamide] was run?
A: 100 to 1000 nM

Q: How did the IC50 turn out when COc1cc(-c2ccn3c([C@H](C)N4CCN(CC(F)(F)F)CC4)c(C)c(C(=O)NCc4c(OC)cc(C)[nH]c4=O)cc23)ccn1 (single isomer, unassigned) [Compound 194, (S)—N-((4-methoxy-6-methyl-2-oxo-1,2-dihydropyridin-3-yl)methyl)-1-(2-methoxypyridin-4-yl)-6-methyl-5-(1-(4-(2,2,2-trifluoroethyl)piperazin-1-yl)ethyl)indolizine-7-carboxamide or (R)—N-((4-methoxy-6-methyl-2-oxo-1,2-dihydropyridin-3-yl)methyl)-1-(2-methoxypyridin-4-yl)-6-methyl-5-(1-(4-(2,2,2-trifluoroethyl)piperazin-1-yl)ethyl)indolizine-7-carboxamide] was run?
A: < 100 nM

Q: How did the IC50 turn out when COc1cc(-c2ccn3c([C@H](C)N4CCN(CC(F)(F)F)CC4)c(C)c(C(=O)NCc4c(OC)cc(C)[nH]c4=O)cc23)ccn1 (single isomer, unassigned) [Compound 195, (S)—N-((4-methoxy-6-methyl-2-oxo-1,2-dihydropyridin-3-yl)methyl)-1-(2-methoxypyridin-4-yl)-6-methyl-5-(1-(4-(2,2,2-trifluoroethyl)piperazin-1-yl)ethyl)indolizine-7-carboxamide or (R)—N-((4-methoxy-6-methyl-2-oxo-1,2-dihydropyridin-3-yl)methyl)-1-(2-methoxypyridin-4-yl)-6-methyl-5-(1-(4-(2,2,2-trifluoroethyl)piperazin-1-yl)ethyl)indolizine-7-carboxamide] was run?
A: 100 to 1000 nM

Q: With COc1cc(C)[nH]c(=O)c1CNC(=O)c1cc2c(-c3cnc(C)nc3)ccn2c([C@H](C)N2CCN(CC(F)(F)F)CC2)c1C (single isomer, unassigned) [Compound 197, (S)—N-((4-methoxy-6-methyl-2-oxo-1,2-dihydropyridin-3-yl)methyl)-6-methyl-1-(2-methylpyrimidin-5-yl)-5-(1-(4-(2,2,2-trifluoroethyl)piperazin-1-yl)ethyl)indolizine-7-formamide or (R)—N-((4-methoxy-6-methyl-2-oxo-1,2-dihydropyridin-3-yl)methyl)-6-methyl-1-(2-methylpyrimidin-5-yl)-5-(1-(4-(2,2,2-trifluoroethyl)piperazin-1-yl)ethyl)indolizine-7-formamide] as the compound, how does the IC50 read?
A: < 100 nM

Q: COc1cc(C)[nH]c(=O)c1CNC(=O)c1cc2c(-c3cnc(C)nc3)ccn2c([C@H](C)N2CCN(CC(F)(F)F)CC2)c1C (single isomer, unassigned) [Compound 198, (S)—N-((4-methoxy-6-methyl-2-oxo-1,2-dihydropyridin-3-yl)methyl)-6-methyl-1-(2-methylpyrimidin-5-yl)-5-(1-(4-(2,2,2-trifluoroethyl)piperazin-1-yl)ethyl)indolizine-7-formamide or (R)—N-((4-methoxy-6-methyl-2-oxo-1,2-dihydropyridin-3-yl)methyl)-6-methyl-1-(2-methylpyrimidin-5-yl)-5-(1-(4-(2,2,2-trifluoroethyl)piperazin-1-yl)ethyl)indolizine-7-formamide] was tested. Which IC50 did it give?
A: < 100 nM

Q: Which IC50 does the source give for COc1cc(C)[nH]c(=O)c1CNC(=O)c1cc2c(-c3ccc(C)nn3)ccn2c([C@H](C)N2CCN(CC(F)(F)F)CC2)c1C (single isomer, unassigned) [Compound 200, (S)—N-((4-methoxy-6-methyl-2-oxo-1,2-dihydropyridin-3-yl)methyl)-6-methyl-1-(6-methylpyridazin-3-yl)-5-(1-(4-(2,2,2-trifluoroethyl)piperazin-1-yl)ethyl)indolizine-7-formamide or (R)—N-((4-methoxy-6-methyl-2-oxo-1,2-dihydropyridin-3-yl)methyl)-6-methyl-1-(6-methylpyridazin-3-yl)-5-(1-(4-(2,2,2-trifluoroethyl)piperazin-1-yl)ethyl)indolizine-7-formamide] here?
A: < 100 nM

Q: COc1cc(C)[nH]c(=O)c1CNC(=O)c1cc2c(-c3ccc(C)nn3)ccn2c([C@H](C)N2CCN(CC(F)(F)F)CC2)c1C (single isomer, unassigned) [Compound 201, (S)—N-((4-methoxy-6-methyl-2-oxo-1,2-dihydropyridin-3-yl)methyl)-6-methyl-1-(6-methylpyridazin-3-yl)-5-(1-(4-(2,2,2-trifluoroethyl)piperazin-1-yl)ethyl)indolizine-7-formamide or (R)—N-((4-methoxy-6-methyl-2-oxo-1,2-dihydropyridin-3-yl)methyl)-6-methyl-1-(6-methylpyridazin-3-yl)-5-(1-(4-(2,2,2-trifluoroethyl)piperazin-1-yl)ethyl)indolizine-7-formamide] was tested. Which IC50 did it give?
A: < 100 nM

Q: For COc1cc(-c2cc3cc(C(=O)NCc4c(C)cc(C)[nH]c4=O)c(C)c(C(C)OC)n3c2)cc(OC)c1OC (centres unmarked) [Compound 151], which IC50 is on record?
A: < 100 nM

Q: Which IC50 does the source give for COc1cc(C)[nH]c(=O)c1CNC(=O)c1cc2c(-c3ccc(N)nc3)ccn2c(C(C)N2CCN(CC(F)(F)F)CC2)c1C (centres unmarked) [Compound 157] here?
A: < 100 nM

Q: With COc1cc(C)[nH]c(=O)c1CNC(=O)c1cc2c(-c3c(C)noc3C)ccn2c(C(C)N2CCN(CC(F)(F)F)CC2)c1C (centres unmarked) [Compound 161, 1-(3,5-dimethylisoxazol-4-yl)-N-((4-methoxy-6-methyl-2-oxo-1,2-dihydropyridin-3-yl)methyl)-6-methyl-5-(1-(4-(2,2,2-trifluoroethyl)piperazin-1-yl)ethyl)indolizine-7-carboxamide] as the compound, how does the IC50 read?
A: < 100 nM

Q: How did the IC50 turn out when CNc1ccc(-c2ccn3c(C(C)N4CCN(CC(F)(F)F)CC4)c(C)c(C(=O)NCc4c(OC)cc(C)[nH]c4=O)cc23)cn1 (centres unmarked) [Compound 163, N-((4-methoxy-6-methyl-2-oxo-1,2-dihydropyridin-3-yl)methyl)-6-methyl-1-(6-(methylamino)pyridin-3-yl)-5-(1-(4-(2,2,2-trifluoroethyl)piperazin-1-yl)ethyl)indolizine-7-carboxamide] was run?
A: < 100 nM

Q: With COc1cc(C)[nH]c(=O)c1CNC(=O)c1cc2c(-c3cc(C)nc(C)c3)ccn2c(C(C)N2CCN(CC(F)(F)F)CC2)c1C (centres unmarked) [Compound 173] as the compound, how does the IC50 read?
A: < 100 nM

Q: COc1cc(C)[nH]c(=O)c1CNC(=O)c1cc2c(-c3ccc(C)nc3C)ccn2c(C(C)N2CCN(CC(F)(F)F)CC2)c1C (centres unmarked) [Compound 176] was tested. Which IC50 did it give?
A: < 100 nM

Q: With COc1cc(C)[nH]c(=O)c1CNC(=O)c1cc2c(-c3cccnc3N(C)C)ccn2c(C(C)N2CCN(CC(F)(F)F)CC2)c1C (centres unmarked) [Compound 179, 1-(2-(dimethylamino)pyridin-3-yl)-N-((4-methoxy-6-methyl-2-oxo-1,2-dihydropyridin-3-yl)methyl)-6-methyl-5-(1-(4-(2,2,2-trifluoroethyl)piperazin-1-yl)ethyl)indolizine-7-carboxamide] as the compound, how does the IC50 read?
A: < 100 nM

Q: With COc1cc(C)[nH]c(=O)c1CNC(=O)c1cc2c(-c3ncnn3C)ccn2c(C(C)N2CCN(CC(F)(F)F)CC2)c1C (centres unmarked) [Compound 183, N-((4-methoxy-6-methyl-2-oxo-1,2-dihydropyridin-3-yl)methyl)-6-methyl-1-(1-methyl-1H-1,2,4-triazol-5-yl)-5-(1-(4-(2,2,2-trifluoroethyl)piperazin-1-yl)ethyl)indolizine-7-carboxamide] as the compound, how does the IC50 read?
A: < 100 nM

same assay, conditions: read-out: IC50 (EZH2_Y641F); EZH2 Y641F PRC2 complex, HTRF; numeric values

Q: COc1cc(C)[nH]c(=O)c1CNC(=O)c1cc2c(-c3cn[nH]c3)ccn2c(C(C)N2CCOCC2)c1C (centres unmarked) [Compound 152, N-((4-Methoxy-6-methyl-2-oxo-1,2-dihydropyridin-3-yl)methyl)-6-methyl-5-(1-morpholinylethyl)-1-(1H-pyrazol-4-yl)indolizine-7-carboxamide] was tested. Which IC50 did it give?
A: 2.65 nM

Q: How did the IC50 turn out when COc1cc(C)[nH]c(=O)c1CNC(=O)c1cc2c(-c3ccn[nH]3)ccn2c(C(C)N2CCOCC2)c1C (centres unmarked) [Compound 153, N-((4-Methoxy-6-methyl-2-oxo-1,2-dihydropyridin-3-yl)methyl)-6-methyl-5-(1-morpholinylethyl)-1-(1H-pyrazol-5-yl)indolizine-7-carboxamide] was run?
A: 2.15 nM

— patent US10968215B2 (SHANGHAI HAIHE PHARMACEUTICAL CO., LTD., priority 2016, dated 2021)
